What is called IC50 is the midpoint of a concentration-inhibition curve.

We go through one compound from paper PMC9298352, “Design, Synthesis and Structural Analysis of Glucocerebrosidase Imaging Agents” (Chemistry (Weinheim an Der Bergstrasse, Germany), 2021).

SMILES strings stand for the structures.

Assay [1] has as its target T1, human GBA2 (from lysates of GBA2 overexpressed cells) (Homo sapiens, UniProt Q9HCG7).
T1 construct: expressed in transfected cells; host or cells: HEK293T
T1 sequence (Q9HCG7 1-927): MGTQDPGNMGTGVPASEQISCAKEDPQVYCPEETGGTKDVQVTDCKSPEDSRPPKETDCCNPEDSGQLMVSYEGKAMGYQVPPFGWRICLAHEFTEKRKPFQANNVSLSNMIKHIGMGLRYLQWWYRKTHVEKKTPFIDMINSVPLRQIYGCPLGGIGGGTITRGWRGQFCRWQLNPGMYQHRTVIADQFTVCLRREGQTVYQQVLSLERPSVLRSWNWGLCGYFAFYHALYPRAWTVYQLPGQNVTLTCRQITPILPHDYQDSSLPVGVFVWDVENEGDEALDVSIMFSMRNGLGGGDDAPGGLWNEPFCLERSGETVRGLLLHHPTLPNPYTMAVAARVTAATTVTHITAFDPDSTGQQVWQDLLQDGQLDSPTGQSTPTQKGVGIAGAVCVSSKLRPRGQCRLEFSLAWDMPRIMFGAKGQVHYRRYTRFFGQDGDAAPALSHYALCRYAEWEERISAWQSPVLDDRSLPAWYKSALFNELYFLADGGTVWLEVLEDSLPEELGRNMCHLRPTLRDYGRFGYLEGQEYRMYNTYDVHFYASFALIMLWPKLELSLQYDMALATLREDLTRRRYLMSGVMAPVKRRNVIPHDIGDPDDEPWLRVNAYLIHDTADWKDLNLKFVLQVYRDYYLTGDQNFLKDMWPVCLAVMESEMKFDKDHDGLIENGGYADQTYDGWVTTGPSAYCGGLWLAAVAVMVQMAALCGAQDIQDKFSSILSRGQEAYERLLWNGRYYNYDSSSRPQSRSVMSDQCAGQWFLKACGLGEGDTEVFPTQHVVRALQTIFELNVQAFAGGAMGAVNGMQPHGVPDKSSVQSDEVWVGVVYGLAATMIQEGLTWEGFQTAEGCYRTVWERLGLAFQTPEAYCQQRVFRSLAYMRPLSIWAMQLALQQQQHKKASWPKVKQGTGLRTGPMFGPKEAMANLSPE
Nature of the assay: In vitro apparent IC50, fluorogenic substrate assay on GBA2 in lysates of overexpressing cells. The format is biochemical. The procedure:
All assays were performed in duplicate sets, each with 3 technical replicates at each inhibitor concentration. DMSO concentration was kept at 0.5 %–1 % (v/v) in all assays during incubation with compounds. In vitro apparent IC50 values were calculated by fitting data with [inhibitor] vs. response‐various slope (four parameters) function using Graphpad Prism 7.0 software. Average values and standard deviations were calculated from the two sets.

In assay [2] the target is T2, GBA2 in mouse brain lysate (Mus musculus, UniProt Q69ZF3).
T2 construct: from tissue; host or cells: mouse brain
T2 sequence (Q69ZF3 1-918): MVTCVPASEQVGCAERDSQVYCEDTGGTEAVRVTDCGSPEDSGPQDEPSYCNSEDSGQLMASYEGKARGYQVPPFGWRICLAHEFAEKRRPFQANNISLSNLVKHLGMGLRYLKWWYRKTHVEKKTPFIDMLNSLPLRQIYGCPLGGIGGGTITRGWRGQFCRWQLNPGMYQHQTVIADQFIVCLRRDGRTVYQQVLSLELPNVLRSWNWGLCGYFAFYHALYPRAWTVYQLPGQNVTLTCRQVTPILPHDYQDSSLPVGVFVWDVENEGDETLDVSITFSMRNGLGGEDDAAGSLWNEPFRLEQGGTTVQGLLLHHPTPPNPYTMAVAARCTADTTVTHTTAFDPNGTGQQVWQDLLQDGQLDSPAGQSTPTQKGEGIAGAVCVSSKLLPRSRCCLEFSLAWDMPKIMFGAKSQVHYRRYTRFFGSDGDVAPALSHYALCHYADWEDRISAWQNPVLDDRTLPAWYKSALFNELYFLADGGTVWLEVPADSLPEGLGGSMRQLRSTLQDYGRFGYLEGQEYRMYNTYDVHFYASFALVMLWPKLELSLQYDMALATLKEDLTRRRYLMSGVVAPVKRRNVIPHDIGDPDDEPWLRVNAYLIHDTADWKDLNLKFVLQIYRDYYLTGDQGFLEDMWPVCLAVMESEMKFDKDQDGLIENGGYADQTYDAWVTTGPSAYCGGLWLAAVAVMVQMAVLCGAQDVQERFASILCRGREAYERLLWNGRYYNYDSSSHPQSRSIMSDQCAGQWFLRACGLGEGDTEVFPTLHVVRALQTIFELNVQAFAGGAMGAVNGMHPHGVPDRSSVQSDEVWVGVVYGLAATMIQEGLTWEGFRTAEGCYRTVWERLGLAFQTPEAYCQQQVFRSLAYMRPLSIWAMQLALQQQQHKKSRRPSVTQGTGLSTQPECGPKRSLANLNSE
The assay is described as follows: Fluorescent labeling of mouse brain lysate, GBA2. The format is biochemical. As to conditions: 30 min, 37 °C. How it is done: We next investigated their labeling efficiency and selectivity toward GBA in mouse brain lysate at pH 5.2 (containing 0.2 % taurocholate and 0.1 % Triton‐100) and pH 5.8 as respective optimal conditions for GBA and GBA2 activities (Figure 7). […] Importantly, no labelling of GBA2 was observed up to 1000 nM, showing good GBA selectivity.
Labeling by broad‐spectrum β‐glucosidase ABP 8 is shown for comparison (100 nM, pH 5.2 or pH 5.8, 30 min, 37 °C).
Fluorescent labeling with broad‐spectrum ABP 8 was performed at 100 nM ABP concentration at 37 °C for 30 min at pH 5.2 (with 0.1 % (v/v) Triton X‐100 and 0.2 % (w/v) sodium taurocholate) or pH 5.8 respectively. Samples were then denatured with 4 μL Laemmli (5x) sample buffer and heated at 98 °C for 5 minutes. Proteins were resolved by electrophoresis in 10 % SDS‐PAGE gels, running at a constant of 90 V for 30 minutes followed by 120 V for approximately 60 minutes. Wet slab gels were scanned on fluorescence using a Typhoon FLA9500 Imager (GE Healthcare) using λEX 635 nm; λEM >665 nm and images were processed using ImageLab 5.2.1 (BioRad).

Consider `CCCCCCCCN1[C@@H]2[C@H](Cn3cc(CNC(=O)CCCCC[N+]4=C(/C=C/C=C/C=C5/N(C)c6ccccc6C5(C)C)C(C)(C)c5ccccc54)nn3)[C@@H](O)[C@H](O)[C@@H](O)[C@@H]21` (some centres unmarked) [ABP 6], for which the concentration for half-maximal inhibition (IC50) in assay [1] is over 100 µM. For the same compound, the “ABP concentration up to which no labelling of GBA2 was observed” value in assay [2] is over 1000 nM.
